Data set [1] is described as follows: Headspace Method, Air/IPM partition (dynamic headspace GC/MS). Type of data set: physicochemical. As to conditions: for Air/IPM partition coef / Headspace: 30° C.; for Headspace: above IPM solution of about 2.1E+06 ng/mL. On the procedure:
(§1) Perfume headspace data is collected for various materials according to the method provided below.
(§2) The partition coefficients are calculated by determining the amount of PRM in the headspace above a solution with a known concentration using a GC/FID-MS (Agilent 7890 and 5977A MSD) with a thermal desorption unit (Gerstel MPS2) and Dynamic Headspace Sampler (Gerstel DHS). This technique allows for automated headspace collections using the MultiPurposeSampler (MPS). The PRMs of interest are prepared at a known concentration in isopropyl myristate (IPM) or propylene glycol monomethyl ether (DPM), and 1 mL is pipetted in a 20 mL headspace vial.
(§3) DHS Conditions: The sample is tempered in the unit at 30° C. A helium stream at 10 mls/min purges 20 mL of headspace containing the analytes above the sample onto the sorbent tube (TDU) containing 25 mg of TenaxTA 35/60 (Restek cat # 25701).
(§4) TDU conditions: The sorbent tube is desorbed with a program starting at 30° C. solvent vent for 2 min then ramped at 720° C./min to 270 ° C. and held for 8 min. The analytes are refocused on a glass bead liner at -60° C. then desorbed at a rate of 12 ° C./s to 270° C. onto the GC column.
(§5) GC/MS conditions: Agilent 122-5532UI column of 30 m×250 μm×0.25 μm and a flow rate of 1.5 mL/min is utilized. A temperature program of 50° C. to 280° C. with a 2 min hold and a ramp rate of 12° C./min is suitable. Scan or SIM mode MSD parameters with a solvent delay for the DPM are applied to achieve appropriate detection.
(§6) Analytical standards can be obtained from Sigma Aldrich, St. Louis, MO and BioSynth, UK. A stock solution is prepared at approximately 0.5 g/L. The stock solution is then diluted to 4 to 5 concentrations ranging from approximately 0.05 g/L to 0.00005 g/L. These standard solutions are then analyzed by GC/MS. This analysis is performed by using the same TDU desorption and GC/MS conditions described above with a luL liquid injection onto the TDU tube instead of the DHS collection. The amount injected on column and the area responses of the target m/z are utilized to create a calibration plot with a linear fit.
(§7) Quantification of the headspace is performed by the PRM target m/z area response of the perfume component and the linear equation of the calibration plot.
(§8) Perfume headspace data is collected for various materials according to the Headspace 5 Method provided above in the Test Methods section. The Air/Solvent partition coefficients are determined and indexed accordingly (e.g., where the partition coefficient for ethylvanillin is set at 1.00).

Data set [2] is described as follows: Headspace Method, Air/DPM partition (dynamic headspace GC/MS). As to conditions: for Air/DPM partition coef / Headspace: 30° C.; for Headspace: above DPM solution of 1.1E+07 ng/mL. Type of data set: physicochemical. On the procedure:
as §1, §2, §3, §4, §5, §6, §7, §8

Data set [3] is described as follows: physchem. As to conditions: oil or lipid, thermodynamic from solid.

A word on the solubility: it is the concentration that dissolves in the medium under given conditions. Low values mean little dissolved substance, high ones much dissolved substance.

≈ marks a conversion by molar mass, not a printed value. Where two headings read alike, the source gives them in different places.

On to `CCOc1cc(C=O)ccc1O` [Ethylvanillin], for which, in data set [1] (average of two replicates), the Air/IPM partition coef is 1.95E−08 ng/mL in air per ng/mL in IPM and the Headspace came to 0.0402 ng/mL. Moreover, the “Ethylvanillin Indexed Air/IPM partition coefficient” value in data set [1] (indexed, ethylvanillin set at 1.00, average of two replicates) is 1.00. In data set [2] (average of three replicates), the Air/DPM partition coef is listed as 2.45E−09 ng/mL in air per ng/mL in DPM and the Headspace is 0.0262 ng/mL. Further, the “Ethylvanillin Indexed Air/DPM partition coefficient” value in data set [2] (indexed, ethylvanillin set at 1.00, average of three replicates) is 1.00. In data set [3], this compound yielded a solubility of 38 mg/mL (≈ 229 mM).

For the compound `COc1cc(C=O)ccc1O` [Vanillin], the “Ethylvanillin Indexed Air/IPM partition coefficient” value in data set [1] was 1.40. For the same compound, in data set [1] (average of two replicates), the Air/IPM partition coef is reported as 2.73E−08 ng/mL in air per ng/mL in IPM and the Headspace turned out to be 0.0563 ng/mL. Besides, the “Ethylvanillin Indexed Air/DPM partition coefficient” value in data set [2] is reported as 4.88. For the same compound, in data set [2] (average of three replicates), the Air/DPM partition coef was 1.21E−08 ng/mL in air per ng/mL in DPM and the Headspace came out at 0.1288 ng/mL.

For `CCOc1cccc(C=O)c1O` [ortho-Ethylvanillin, 2-hydroxy-3-ethoxybenzaldehyde], the “Ethylvanillin Indexed Air/IPM partition coefficient” value in data set [1] was 6.17. For the same compound, in data set [1] (average of two replicates), the Air/IPM partition coef is reported as 1.21E−07 ng/mL in air per ng/mL in IPM and the Headspace came out at 0.2521 ng/mL. Moreover, in data set [1] (out of IPM), the “goes into the headspace more than its structural isomer ethylvanillin” value was “about 6.2 X”. Also, the “Ethylvanillin Indexed Air/DPM partition coefficient” value in data set [2] is listed as 93.7. Further, in data set [2] (average of three replicates), the Air/DPM partition coef is recorded as 2.31E−07 ng/mL in air per ng/mL in DPM and the Headspace stood at 2.4678 ng/mL. Further, the “goes into the headspace more than ethylvanillin” value in data set [2] (out of DPM) was “about 94 X”. Further, the solubility in data set [3] was found to be 73 mg/mL (≈ 439 mM).

Values taken from patent US20240199977A1, “COMPOSITIONS COMPRISING A META-(C1-C4 ALKOXY) […]” (The Procter & Gamble Company, priority 2022, published 2024).
